Experimental data from patent US12138272B2, “Methods and compositions for treating amyotrophic lateral sclerosis” (Amylyx Pharmaceuticals, Inc., priority 2022, dated 2024).
≈ marks a conversion by molar mass, not a printed value. Entries after “also recorded” stand apart in the source; their conditions may differ. Marks after values point to notes of the source that are not given here.

Columns and labels:
BSEP [1] = biological target: T1, BSEP (Homo sapiens, UniProt O95342); experiment: ATP-dependent uptake of test article by BSEP-transfected Sf9 membrane vesicles (substrate assessment); conditions: for remaining BSEP activity after cyclosporine A treatment: test article 1 and 10 μM + cyclosporine A 20 μM; for substrate of BSEP (conclusion in words): criteria ≥2-fold ATP-dependent uptake and >50% inhibition by selective inhibitor; for inhibition of test article uptake by cyclosporine A: cyclosporine A 20 μM
BSEP [2] = biological target: T1, BSEP; experiment: in vitro
BSEP [3] = biological target: T1, BSEP; experiment: Inhibition of 3H-taurocholic acid uptake by BSEP membrane vesicles (inhibitor assessment); conditions: for inhibitor of BSEP (conclusion in words): criterion >25% concentration-dependent inhibition of probe substrate uptake; for ATP-Dependent Uptake Activity of 3H-taurocholic acid / Signal-to-Noise Ratio / Uptake Activity of 3H-taurocholic acid, Mg-AMP / Uptake Activity of 3H-taurocholic acid, Mg-ATP: 3H-taurocholic acid 1 μM
[4] = Solubility in stock solvent and assay buffers
[5] = test article 1 μM + cyclosporine 20 μM
[6] = test article 10 μM + cyclosporine 20 μM
[7] = assay buffers, aqueous buffer, kinetic from dmso stock
[8] = methanol, organic solvent or mixture
[9] = test article 10 μM, listed as UA

T1 sequence (O95342 whole entry): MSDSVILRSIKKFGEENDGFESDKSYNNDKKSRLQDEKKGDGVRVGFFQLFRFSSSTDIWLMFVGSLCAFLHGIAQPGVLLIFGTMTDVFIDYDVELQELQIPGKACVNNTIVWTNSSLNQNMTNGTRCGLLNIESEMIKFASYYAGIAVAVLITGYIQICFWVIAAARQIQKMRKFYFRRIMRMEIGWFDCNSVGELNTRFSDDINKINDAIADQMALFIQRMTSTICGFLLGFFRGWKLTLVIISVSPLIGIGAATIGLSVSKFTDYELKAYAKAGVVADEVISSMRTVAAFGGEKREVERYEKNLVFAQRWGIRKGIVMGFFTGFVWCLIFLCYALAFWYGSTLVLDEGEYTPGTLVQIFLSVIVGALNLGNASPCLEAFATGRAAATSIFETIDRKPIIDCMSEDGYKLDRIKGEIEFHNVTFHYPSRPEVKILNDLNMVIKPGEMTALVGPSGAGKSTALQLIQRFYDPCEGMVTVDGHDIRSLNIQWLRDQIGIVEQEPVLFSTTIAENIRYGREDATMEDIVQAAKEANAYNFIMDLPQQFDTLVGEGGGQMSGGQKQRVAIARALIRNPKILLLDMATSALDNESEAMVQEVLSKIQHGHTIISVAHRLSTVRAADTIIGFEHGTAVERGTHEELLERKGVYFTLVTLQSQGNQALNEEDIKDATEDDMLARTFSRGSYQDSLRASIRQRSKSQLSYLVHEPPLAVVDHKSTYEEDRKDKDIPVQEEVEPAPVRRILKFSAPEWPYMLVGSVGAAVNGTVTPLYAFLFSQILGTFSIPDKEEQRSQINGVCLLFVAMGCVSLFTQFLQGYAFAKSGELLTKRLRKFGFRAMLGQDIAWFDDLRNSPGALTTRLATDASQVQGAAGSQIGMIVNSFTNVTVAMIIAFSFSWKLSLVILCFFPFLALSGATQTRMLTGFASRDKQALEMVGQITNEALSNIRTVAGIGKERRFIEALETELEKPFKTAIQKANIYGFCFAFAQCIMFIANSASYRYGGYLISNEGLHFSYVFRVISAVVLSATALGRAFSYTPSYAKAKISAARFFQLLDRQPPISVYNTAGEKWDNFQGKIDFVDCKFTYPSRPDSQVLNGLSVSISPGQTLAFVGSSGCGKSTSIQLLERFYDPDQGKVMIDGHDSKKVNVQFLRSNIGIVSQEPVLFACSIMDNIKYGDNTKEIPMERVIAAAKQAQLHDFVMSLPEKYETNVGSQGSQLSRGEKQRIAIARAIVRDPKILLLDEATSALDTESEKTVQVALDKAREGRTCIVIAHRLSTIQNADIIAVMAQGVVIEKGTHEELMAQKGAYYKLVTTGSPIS

Compound | ATP-Dependent Uptake Activity of test article (BSEP [1]; test article 1 μM) | Uptake Activity of test article, Mg-AMP (BSEP [1]; test article 1 μM) | Uptake Activity of test article, Mg-ATP (BSEP [1]; test article 1 μM) | Uptake Activity of test article, Mg-AMP (BSEP [1]; [5]) | Uptake Activity of test article, Mg-ATP (BSEP [1]; [5]) | ATP-Dependent Uptake Activity of test article (BSEP [1]; test article 10 μM) | Uptake Activity of test article, Mg-AMP (BSEP [1]; test article 10 μM) | Uptake Activity of test article, Mg-ATP (BSEP [1]; test article 10 μM) | ATP-Dependent Uptake Activity of test article (BSEP [1]; [6]) | Uptake Activity of test article, Mg-AMP (BSEP [1]; [6]) | Uptake Activity of test article, Mg-ATP (BSEP [1]; [6]) | ATP-dependent BSEP uptake activity relative to AMP uptake (BSEP [1]; test article 1 and 10 μM) | remaining BSEP activity after cyclosporine A treatment (BSEP [1]) | substrate of BSEP (conclusion in words) (BSEP [1]; test article 1 and 10 μM) | inhibition of test article uptake by cyclosporine A (BSEP [1]; test article 1 and 10 μM) | potency estimated from few doses at 30 min (BSEP [2]) | inhibitor of BSEP (conclusion in words) (BSEP [3]) | solubility [4, 7] | solubility [4, 8] | Signal-to-Noise Ratio (BSEP [1]; test article 10 μM) | other results
C[C@H](CCC(=O)NCC(=O)O)[C@H]1CC[C@H]2[C@@H]3[C@@H](O)C[C@@H]4C[C@H](O)CC[C@]4(C)[C@H]3CC[C@]12C [Glycoursodeoxycholic acid] | 11.2 pmol/minute/mg protein | BLQ | 11.2 pmol/minute/mg protein | BLQ | BLQ | 14.2 pmol/minute/mg protein | BLQ | 14.2 pmol/minute/mg protein | 0.00^b pmol/minute/mg protein | 6.93 pmol/minute/mg protein | BLQ | > 2 fold | No remaining BSEP activity | a substrate of BSEP transporters | inhibited by cyclosporine A | < 10 µM | strongly inhibited; also recorded: inhibited | 0.1 mM (≈ 45 µg/mL) | 50 mM (≈ 22500 µg/mL) |  | substrate of BSEP (conclusion in words) (BSEP [1]; test article 1 and 10 μM, listed as glycoursodeoxycholic acid): a substrate of BSEP; activity at 30 min, 10 μM (BSEP [2]): 48.3%; activity at 30 min, 100 μM (BSEP [2]): 10.4%; inhibitor of BSEP (conclusion in words) (BSEP [3]; listed as glycoursodeoxycholic acid): inhibitors of BSEP; ATP-Dependent Uptake Activity of 3H-taurocholic acid (BSEP [3]; inhibitor 10 μM): 8.56 pmol/minute/mg protein; Signal-to-Noise Ratio (BSEP [3]; inhibitor 10 μM): 11.9; Uptake Activity of 3H-taurocholic acid, Mg-AMP (BSEP [3]; inhibitor 10 μM): 0.788 pmol/minute/mg protein; Uptake Activity of 3H-taurocholic acid, Mg-ATP (BSEP [3]; inhibitor 10 μM): 9.35 pmol/minute/mg protein; ATP-Dependent Uptake Activity of 3H-taurocholic acid (BSEP [3]; inhibitor 100 μM): 1.84 pmol/minute/mg protein; Signal-to-Noise Ratio (BSEP [3]; inhibitor 100 μM): 2.89; Uptake Activity of 3H-taurocholic acid, Mg-AMP (BSEP [3]; inhibitor 100 μM): 0.974 pmol/minute/mg protein; Uptake Activity of 3H-taurocholic acid, Mg-ATP (BSEP [3]; inhibitor 100 μM): 2.81 pmol/minute/mg protein
O=C(O)CCCc1ccccc1 [Sodium phenylbutyrate] |  | BLQ | BLQ |  |  |  |  |  |  | BLQ | BLQ |  |  | not a substrate of BSEP |  |  | did not meet the criteria for identification as an inhibitor; also recorded: did not inhibit | 0.25 mM | 50 mM |  | uptake of test article by BSEP vesicles (BSEP [1]; test article 1 and 10 μM): not detected; substrate of BSEP (conclusion in words) (BSEP [1]; test article 1 and 10 μM, listed as sodium phenylbutyrate): not identified as a substrate; activity at 30 min, 25 μM (BSEP [2]): 77.2%; activity at 30 min, 250 μM (BSEP [2]): 82.4%; ATP-Dependent Uptake Activity of 3H-taurocholic acid (BSEP [3]; inhibitor 25 μM): 19.3 pmol/minute/mg protein; Signal-to-Noise Ratio (BSEP [3]; inhibitor 25 μM): 35.9; Uptake Activity of 3H-taurocholic acid, Mg-AMP (BSEP [3]; inhibitor 25 μM): 0.554 pmol/minute/mg protein; Uptake Activity of 3H-taurocholic acid, Mg-ATP (BSEP [3]; inhibitor 25 μM): 19.9 pmol/minute/mg protein; ATP-Dependent Uptake Activity of 3H-taurocholic acid (BSEP [3]; inhibitor 250 μM): 20.6 pmol/minute/mg protein; Signal-to-Noise Ratio (BSEP [3]; inhibitor 250 μM): 31.6; Uptake Activity of 3H-taurocholic acid, Mg-AMP (BSEP [3]; inhibitor 250 μM): 0.673 pmol/minute/mg protein; Uptake Activity of 3H-taurocholic acid, Mg-ATP (BSEP [3]; inhibitor 250 μM): 21.3 pmol/minute/mg protein
C[C@H](CCC(=O)NCCS(=O)(=O)O)[C@H]1CC[C@H]2[C@@H]3[C@@H](O)C[C@@H]4C[C@H](O)CC[C@]4(C)[C@H]3CC[C@]12C [Tauroursodeoxycholic acid] | 14.4 pmol/minute/mg protein | 4.90^c pmol/minute/mg protein | 19.3^b pmol/minute/mg protein | BLQ | BLQ | 22.4 pmol/minute/mg protein | 2.33 pmol/minute/mg protein | 24.7 pmol/minute/mg protein | 2.81 pmol/minute/mg protein | 3.98 pmol/minute/mg protein | 6.79 pmol/minute/mg protein | > 2 fold | ≤ 12.6% | a substrate of BSEP transporters | inhibited by cyclosporine A | < 5 µM | strongly inhibited; also recorded: inhibited | 0.05 mM (≈ 25 µg/mL) | 10 mM (≈ 5000 µg/mL) | 10.6 | Signal-to-Noise Ratio (BSEP [1]; test article 1 μM): 3.94; Signal-to-Noise Ratio (BSEP [1]; [6]): 1.71; substrate of BSEP (conclusion in words) (BSEP [1]; test article 1 and 10 μM, listed as tauroursodeoxycholic acid): a substrate of BSEP; activity at 30 min, 5 μM (BSEP [2]): 46.2%; activity at 30 min, 50 μM (BSEP [2]): 5.14%; inhibitor of BSEP (conclusion in words) (BSEP [3]; listed as TURSO): inhibitors of BSEP; ATP-Dependent Uptake Activity of 3H-taurocholic acid (BSEP [3]; inhibitor 5 μM): 6.71 pmol/minute/mg protein; Signal-to-Noise Ratio (BSEP [3]; inhibitor 5 μM): 10.1^b; Uptake Activity of 3H-taurocholic acid, Mg-AMP (BSEP [3]; inhibitor 5 μM): 0.737 pmol/minute/mg protein; Uptake Activity of 3H-taurocholic acid, Mg-ATP (BSEP [3]; inhibitor 5 μM): 7.45^b pmol/minute/mg protein; ATP-Dependent Uptake Activity of 3H-taurocholic acid (BSEP [3]; inhibitor 50 μM): 0.747 pmol/minute/mg protein; Signal-to-Noise Ratio (BSEP [3]; inhibitor 50 μM): 2.34; Uptake Activity of 3H-taurocholic acid, Mg-AMP (BSEP [3]; inhibitor 50 μM): 0.556 pmol/minute/mg protein; Uptake Activity of 3H-taurocholic acid, Mg-ATP (BSEP [3]; inhibitor 50 μM): 1.30 pmol/minute/mg protein
C[C@H](CCC(=O)O)[C@H]1CC[C@H]2[C@@H]3[C@@H](O)C[C@@H]4C[C@H](O)CC[C@]4(C)[C@H]3CC[C@]12C [Ursodeoxycholic acid] | could not be detected | BLQ | BLQ | BLQ | BLQ | 0.792 pmol/minute/mg protein | 3.08^b pmol/minute/mg protein | 3.87^b pmol/minute/mg protein |  | BLQ | 5.61^b pmol/minute/mg protein | < 2 fold |  | not a substrate |  | < 500 µM | inhibited uptake of the probe substrate | 0.5 mM (≈ 196 µg/mL) | 100 mM (≈ 39300 µg/mL) | 1.26 | ATP-Dependent Uptake Activity of test article (BSEP [1]; [9]): 0.792^b pmol/minute/mg protein; Signal-to-Noise Ratio (BSEP [1]; [9]): 1.26^b; substrate of BSEP (conclusion in words) (BSEP [1]; test article 1 and 10 μM, listed as ursodeoxycholic acid): not a substrate of BSEP; IC50 at 30 min (BSEP [2]): < 500 µM; activity at 30 min, 50 μM (BSEP [2]): 64%; activity at 30 min, 500 μM (BSEP [2]): 4.5%; inhibitor of BSEP (conclusion in words) (BSEP [3]; listed as ursodeoxycholic acid): inhibitors of BSEP; ATP-Dependent Uptake Activity of 3H-taurocholic acid (BSEP [3]; inhibitor 50 μM): 6.04 pmol/minute/mg protein; Signal-to-Noise Ratio (BSEP [3]; inhibitor 50 μM): 9.66; Uptake Activity of 3H-taurocholic acid, Mg-AMP (BSEP [3]; inhibitor 50 μM): 0.697 pmol/minute/mg protein; Uptake Activity of 3H-taurocholic acid, Mg-ATP (BSEP [3]; inhibitor 50 μM): 6.73 pmol/minute/mg protein; ATP-Dependent Uptake Activity of 3H-taurocholic acid (BSEP [3]; inhibitor 500 μM): 0.425 pmol/minute/mg protein; Signal-to-Noise Ratio (BSEP [3]; inhibitor 500 μM): 1.95; Uptake Activity of 3H-taurocholic acid, Mg-AMP (BSEP [3]; inhibitor 500 μM): 0.449 pmol/minute/mg protein; Uptake Activity of 3H-taurocholic acid, Mg-ATP (BSEP [3]; inhibitor 500 μM): 0.873 pmol/minute/mg protein
